Experiment: xn = mol fraction of the nth substance listed
Conditions: 100 kPa, Liquid; for viscosity: Falling or rolling sphere viscometry; for mass density: Vibrating tube method

CN(C)C(=[NH2+])N(C)C.c1c[n-]cn1 [1,1,3,3-tetramethylguanidinium imidazol-1-ide] + CCCCO
Conditions | mass density, 293.15 K [kg/m3] | mass density, 298.15 K [kg/m3] | mass density, 303.15 K [kg/m3] | mass density, 308.15 K [kg/m3] | mass density, 313.15 K [kg/m3] | viscosity, 293.15 K [mPa·s] | viscosity, 298.15 K [mPa·s] | viscosity, 303.15 K [mPa·s] | viscosity, 308.15 K [mPa·s] | viscosity, 313.15 K [mPa·s]
x1 = 0.0499 | 828.74 | 824.87 | 820.97 | 817.04 | 813.07 | 3.053 | 2.7 | 2.399 | 2.141 | 1.92
x1 = 0.1004 | 845.73 | 841.79 | 837.82 | 833.83 | 829.83 | 3.248 | 2.868 | 2.549 | 2.276 | 2.04
x1 = 0.1999 | 875.01 | 870.95 | 866.87 | 862.77 | 858.67 | 3.727 | 3.272 | 2.89 | 2.569 | 2.298
x1 = 0.2997 | 899.57 | 895.41 | 891.24 | 887.07 | 882.9 | 4.41 | 3.801 | 3.323 | 2.931 | 2.604
x1 = 0.3985 | 920.24 | 916.05 | 911.78 | 907.55 | 903.31 | 5.155 | 4.414 | 3.823 | 3.343 | 2.948
x1 = 0.4997 | 938.26 | 933.99 | 929.7 | 925.4 | 921.09 | 6.003 | 5.029 | 4.322 | 3.751 | 3.286
x1 = 0.6499 | 960.31 | 955.97 | 951.62 | 947.27 | 942.92 | 7.076 | 5.887 | 5 | 4.267 | 3.737
x1 = 0.8002 | 978.39 | 974 | 969.59 | 965.19 | 960.8 | 8.02 | 6.617 | 5.547 | 4.739 | 4.097
x1 = 0.9004 | 988.56 | 984.14 | 979.72 | 975.28 | 970.84 | 8.6 | 7.032 | 5.877 | 5.021 | 4.299
x1 = 1 | 997.25 | 992.8 | 988.35 | 983.9 | 979.46 | 8.952 | 7.287 | 6.044 | 5.097 | 4.358
